Measurements taken from ChEMBL document CHEMBL1201862, “PubChem BioAssay data set” (2004).
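The compound was tested at five concentrations on cells cultured in 96-well plates, with a 48-hour exposure period. GI50 = concentration required for 50% inhibition of growth.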 Calls of active or inactive are those of the source. No stated cut-off is given here; in the data, active = GI50 up to about 1.1 µM and inactive = higher.

Columns and labels:
Assay in all cases: NCI anticancer screen, dose series, 48 h
BT-549 = system: BT-549
CAKI-1 = system: CAKI-1
CCRF-CEM = system: CCRF-CEM
HCT-15 = system: HCT-15
HOP-62 = system: HOP-62
IGROV-1 = system: IGROV-1
K562 = system: K562
KM12 = system: KM12
LOX IMVI = system: LOX IMVI
NCI-H226 = system: NCI-H226
NCI/ADR-RES = system: NCI/ADR-RES
OVCAR-3 = system: OVCAR-3
OVCAR-4 = system: OVCAR-4
PC-3 = system: PC-3
RPMI-8226 = system: RPMI-8226
RXF 393 = system: RXF 393
SK-MEL-28 = system: SK-MEL-28
SNB-19 = system: SNB-19
A549 = system: A549
NCI-H522 = system: NCI-H522

Structure (SMILES)	GI50 (BT-549)	GI50 (CAKI-1)	GI50 (CCRF-CEM)	GI50 (HCT-15) [µM]	GI50 (HOP-62)	GI50 (IGROV-1)	GI50 (K562)	GI50 (KM12)	GI50 (LOX IMVI)	GI50 (NCI-H226)	GI50 (NCI/ADR-RES)	GI50 (OVCAR-3)	GI50 (OVCAR-4)	GI50 (PC-3)	GI50 (RPMI-8226)	GI50 (RXF 393)	GI50 (SK-MEL-28)	GI50 (SNB-19)	GI50 (A549)	GI50 (NCI-H522)
CC1(O)C2(c3ccccc3)CCC[N+]1(C)CC2 (centres undefined)	> 100 µM (inactive)	> 100 µM (inactive)	> 100 µM (inactive)	> 100	> 100 µM (inactive)	> 100 µM (inactive)	> 100 µM (inactive)	> 100 µM (inactive)	> 100 µM (inactive)	> 100 µM (inactive)	> 100 µM (inactive)	> 100 µM (inactive)	> 100 µM (inactive)	> 100 µM (inactive)	> 100 µM (inactive)	> 100 µM (inactive)	> 100 µM (inactive)	> 100 µM (inactive)		
O=S(=O)(O)c1cc(S(=O)(=O)O)c2cc(/N=N/c3ccc(/N=N/c4ccc(/C=C/c5ccc(/N=[N+](/[O-])c6ccc(/C=C/c7ccc(/N=N/c8ccc(/N=N/c9ccc%10cc(S(=O)(=O)O)cc(S(=O)(=O)O)c%10c9)cc8)cc7S(=O)(=O)O)c(S(=O)(=O)O)c6)cc5S(=O)(=O)O)c(S(=O)(=O)O)c4)cc3)ccc2c1			> 100 µM (inactive)	52.6	> 100 µM (inactive)	> 100 µM (inactive)	> 100 µM (inactive)	26.7 µM (inactive)	> 59.7 µM (inactive)	> 50.5 µM (inactive)	> 100 µM (inactive)	> 31.6 µM (inactive)	> 48.1 µM (inactive)		46.5 µM (inactive)	> 50.9 µM (inactive)	> 100 µM (inactive)	25.9 µM (inactive)	> 65.3 µM (inactive)	> 55.8 µM (inactive)
COc1ccc2cc1Oc1ccc(cc1)CC1c3c(cc(OC)c4c3Oc3cc5c(cc3O4)CCNC5C2)CCN1C (centres undefined)	2.77 µM (inactive)	2.87 µM (inactive)	1.24 µM (inactive)	1.77	2.2 µM (inactive)	1.87 µM (inactive)		1.85 µM (inactive)	1.69 µM (inactive)	5.52 µM (inactive)	1.92 µM (inactive)	2.69 µM (inactive)	2.33 µM (inactive)	1.88 µM (inactive)	1.63 µM (inactive)		1.88 µM (inactive)	2 µM (inactive)	2.2 µM (inactive)	1.7 µM (inactive)
COc1cc(C2S/C(=C/c3ccccc3)C(=O)N2c2ccc(NC(C)=O)cc2)cc(OC)c1OC (centres undefined)	16.3 µM (inactive)	18.8 µM (inactive)	0.319 µM (active)	15	30.4 µM (inactive)		16 µM (inactive)	14.1 µM (inactive)	18.2 µM (inactive)		23.4 µM (inactive)		19.3 µM (inactive)	11.8 µM (inactive)		17.5 µM (inactive)	30.8 µM (inactive)	38.1 µM (inactive)	23.8 µM (inactive)	10.1 µM (inactive)
